The record followed here is ChEMBL document CHEMBL1141021, “Anthranilimide-based glycogen phosphorylase inhibitors for the treatment of Type 2 diabetes: 2. Optimization of serine and threonine ether amino acid residues” (Bioorg Med Chem Lett, 2009).

SMILES strings stand for the structures.

Holding throughout (assay type): ADME, organism-based
Data set [1] in a line: Half life in Sprague-Dawley rat at 10 mg/kg, po or […], iv. As to conditions: in vivo.
A short description of data set [2]: Clearance in Sprague-Dawley rat at 10 mg/kg, po or […], iv. As to conditions: in vivo.
A further data set relates to Rattus norvegicus. Kind of data set: Dose normalized AUC (0 to infinity) in Sprague-Dawley rat at 1 mg/kg, po. Further details: dose 1 mg/kg, route oral, time infinity. The note with it: in vivo.
Data set [3] in a line: Oral bioavailability in Sprague-Dawley rat at 10 mg/kg. As to conditions: in vivo.
Data set [4] can be described thus: Volume of distribution at steady state in Sprague-Dawley rat at 10 mg/kg, po or […], iv. As to conditions: in vivo, read-out: Vdss.

Turning to `CCCC[C@H](NC(=O)c1cc2ccccc2cc1NC(=O)Nc1c(C)cc(C)cc1C)C(=O)O`, the half-life in data set [1] was 2.8 h. In data set [2], this compound gave a clearance of 4 mL/min/kg. For the same compound, the AUC in the data set on Rattus norvegicus amounted to 320 ng·h/mL. This compound also returned a bioavailability in data set [3] of 8%. Also, in data set [4], the Vd came to 0.6 L/kg.
The like results for `Cc1cc(C)c(NC(=O)Nc2cc3ccccc3cc2C(=O)N[C@H](C(=O)O)[C@@H](C)OC(C)(C)C)c(C)c1` were, in that order, 3 h, 13 mL/min/kg, 514 ng·h/mL, 40% and 0.5 L/kg.
`Cc1cc(C)c(NC(=O)Nc2cc3ccccc3cc2C(=O)N[C@@H](COC(C)(C)C)C(=O)O)c(C)c1` gave a half-life in data set [1] of 4 h. Also, in data set [2], the clearance is 26 mL/min/kg. The AUC with Rattus norvegicus was determined as 256 ng·h/mL. Besides, the bioavailability in data set [3] is 17%. Besides, in data set [4], the Vd amounted to 1.9 L/kg.
